ChEMBL document CHEMBL4680277, “Targeting Metabolism of Extracellular Nucleotides via Inhibition of Ectonucleotidases CD73 and CD39” (J Med Chem, 2020)
pEC50, pIC50, pKi: −log10 of the molar value.

Key:
5'-nucleotidase [1] = target: T1, 5'-nucleotidase (Homo sapiens, UniProt P21589); experiment: Inhibition of recombinant human CD73 using AMP as substrate incubated for 90 mins by malachite green colorimetric assay
5'-nucleotidase [2] = target: T1, 5'-nucleotidase; experiment: Inhibition of recombinant human CD73 using AMP as substrate incubated for 120 mins by CellTiter-Glo assay
5'-nucleotidase [3] = target: T1, 5'-nucleotidase; experiment: Inhibition of human C-terminal His6-tagged CD73 expressed in HEK293F cells using [15N]5-AMP as substrate preincubated for 1 hr followed by substrate addition and measured after 8 mins by MS/MS assay
5'-nucleotidase [4] = target: T1, 5'-nucleotidase; experiment: Inhibition of human CD73 expressed in CHO cells using AMP as substrate preincubated for 10 mins followed by substrate addition and measured every minute for 10 to 20 mins by PNP coupled enzyme assay; format: cell-based
5'-nucleotidase [5] = target: T2, 5'-nucleotidase (Rattus norvegicus, UniProt P21588); experiment: Inhibition of rat CD73 expressed in baculovirus infected insect cells using AMP substrate by capillary electrophoresis assay
T2 sequence (P21588 whole entry): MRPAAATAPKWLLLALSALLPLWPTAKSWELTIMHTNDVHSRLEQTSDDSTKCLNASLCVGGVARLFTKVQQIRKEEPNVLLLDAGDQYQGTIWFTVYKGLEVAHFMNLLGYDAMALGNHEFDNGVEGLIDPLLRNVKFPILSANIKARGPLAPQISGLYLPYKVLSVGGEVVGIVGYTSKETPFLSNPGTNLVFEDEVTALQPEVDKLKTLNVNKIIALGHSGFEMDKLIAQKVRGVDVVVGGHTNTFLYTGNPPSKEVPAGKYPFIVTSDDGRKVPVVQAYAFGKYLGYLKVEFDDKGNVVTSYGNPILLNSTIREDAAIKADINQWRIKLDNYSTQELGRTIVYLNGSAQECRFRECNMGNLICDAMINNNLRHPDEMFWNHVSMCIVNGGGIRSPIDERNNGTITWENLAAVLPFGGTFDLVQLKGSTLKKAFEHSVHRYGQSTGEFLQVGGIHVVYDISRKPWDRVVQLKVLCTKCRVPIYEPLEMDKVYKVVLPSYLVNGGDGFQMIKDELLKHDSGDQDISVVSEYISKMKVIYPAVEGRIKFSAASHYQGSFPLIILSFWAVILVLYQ

5'-nucleotidase [6] = target: T1, 5'-nucleotidase; experiment: Inhibition of CD73 in human melanoma 1539 cells using AMP substrate by capillary electrophoresis assay; format: cell-based, NW1539
Rattus norvegicus = species on record: Rattus norvegicus; experiment: Inhibition of ecto-ATPase in Wistar rat cardiac synaptosomes assessed as reduction in ATP hydrolysis at 100 uM preincubated for 10 min followed by ATP addition and measured after 6 mins relative to control; format: subcellular; conditions: Heart, time 16.0 min
5'-nucleotidase [7] = target: T1, 5'-nucleotidase; experiment: Inhibition of human C-terminal 6His-tagged CD73 (1 to 547 residues) expressed in HEK293F cells using 2 uM AMP as substrate by rapidfire mass spectrometry assay
5'-nucleotidase [8] = target: T1, 5'-nucleotidase; experiment: Inhibition of CD73 in human serum using 13C5-15N5-AMP as substrate preincubated for 60 mins followed by substrate addition and measured after 15 mins by LC/MS based assay; format: cell-free
[9] = target: T3, Ectonucleoside triphosphate diphosphohydrolase 1 (Homo sapiens, UniProt P49961); experiment: Inhibition of human CD39 using ATP as substrate preincubated for 3 mins followed by substrate addition and measured after 10 to 15 mins by Dixon and Cornish-Bowden plot analysis; conditions: read-out: Ki(app)
T3 sequence (P49961 whole entry): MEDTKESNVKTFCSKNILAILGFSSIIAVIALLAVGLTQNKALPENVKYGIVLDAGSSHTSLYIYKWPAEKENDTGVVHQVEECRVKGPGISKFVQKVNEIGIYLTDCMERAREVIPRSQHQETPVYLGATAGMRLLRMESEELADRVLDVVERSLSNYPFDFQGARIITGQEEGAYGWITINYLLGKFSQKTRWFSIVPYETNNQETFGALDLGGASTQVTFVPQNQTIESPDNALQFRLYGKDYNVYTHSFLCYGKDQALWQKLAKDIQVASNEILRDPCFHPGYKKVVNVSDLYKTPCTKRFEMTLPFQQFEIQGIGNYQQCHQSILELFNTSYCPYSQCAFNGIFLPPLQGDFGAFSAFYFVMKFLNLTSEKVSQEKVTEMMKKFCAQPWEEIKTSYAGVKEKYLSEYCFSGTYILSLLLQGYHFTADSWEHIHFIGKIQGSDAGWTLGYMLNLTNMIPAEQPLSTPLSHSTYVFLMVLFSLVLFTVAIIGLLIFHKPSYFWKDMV

[10] = target: T3, Ectonucleoside triphosphate diphosphohydrolase 1; experiment: Inhibition of human CD39 using ATP as substrate preincubated for 3 mins followed by substrate addition and measured after 10 to 15 mins by Malachite green reagent based assay
[11] = target: T4, Ectonucleoside triphosphate diphosphohydrolase 1 (Rattus norvegicus, UniProt P97687); experiment: Inhibition of rat CD39 expressed in CHO cells using ATP as substrate incubated for 10 mins by UV absorbance method; format: cell-based
T4 sequence (P97687 whole entry): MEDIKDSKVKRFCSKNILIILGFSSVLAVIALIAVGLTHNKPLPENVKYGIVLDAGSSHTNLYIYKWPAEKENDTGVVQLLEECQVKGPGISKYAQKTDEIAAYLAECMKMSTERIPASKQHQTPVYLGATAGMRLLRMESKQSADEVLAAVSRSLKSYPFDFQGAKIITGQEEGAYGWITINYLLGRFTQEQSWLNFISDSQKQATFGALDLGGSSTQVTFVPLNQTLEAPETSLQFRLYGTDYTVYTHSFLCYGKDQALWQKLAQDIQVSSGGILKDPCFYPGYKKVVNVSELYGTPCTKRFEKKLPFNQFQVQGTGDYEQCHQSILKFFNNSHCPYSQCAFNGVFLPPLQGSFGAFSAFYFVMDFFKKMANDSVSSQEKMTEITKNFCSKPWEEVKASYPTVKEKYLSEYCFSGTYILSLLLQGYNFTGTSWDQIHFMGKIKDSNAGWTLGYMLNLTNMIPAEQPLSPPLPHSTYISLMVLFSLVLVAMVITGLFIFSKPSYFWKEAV

[12] = target: T5, Ectonucleoside triphosphate diphosphohydrolase 2 (Rattus norvegicus, UniProt O35795); experiment: Inhibition of rat NTPDase2 expressed in CHO cells using ATP as substrate incubated for 10 mins by UV absorbance method; format: cell-based
T5 sequence (O35795 whole entry): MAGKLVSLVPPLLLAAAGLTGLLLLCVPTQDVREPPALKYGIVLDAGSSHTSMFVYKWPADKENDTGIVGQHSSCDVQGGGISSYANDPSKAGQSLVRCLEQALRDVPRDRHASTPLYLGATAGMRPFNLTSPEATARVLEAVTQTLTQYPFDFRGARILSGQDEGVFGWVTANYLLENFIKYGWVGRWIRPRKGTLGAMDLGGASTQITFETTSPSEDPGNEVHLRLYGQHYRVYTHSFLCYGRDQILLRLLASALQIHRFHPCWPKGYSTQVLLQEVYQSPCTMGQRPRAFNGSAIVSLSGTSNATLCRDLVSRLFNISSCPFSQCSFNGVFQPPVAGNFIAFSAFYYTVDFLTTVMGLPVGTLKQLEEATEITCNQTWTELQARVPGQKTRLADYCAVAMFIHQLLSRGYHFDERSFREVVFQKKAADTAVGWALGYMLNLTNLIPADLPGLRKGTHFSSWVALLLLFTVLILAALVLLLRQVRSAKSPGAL

[13] = Inhibition of rat NTPDase3 expressed in CHO cells using ATP as substrate incubated for 10 mins by UV absorbance method; format: cell-based
[14] = Inhibition of human FLAG-tagged CD73 Thr376Ala mutant (1 to 552 residues) assessed as reduction in adenosine formation using AMP as substrate preincubated for 10 mins followed by substrate addition and measured after 30 mins by rapidfire mass spectrometry assay

T1 sequence (P21589 whole entry): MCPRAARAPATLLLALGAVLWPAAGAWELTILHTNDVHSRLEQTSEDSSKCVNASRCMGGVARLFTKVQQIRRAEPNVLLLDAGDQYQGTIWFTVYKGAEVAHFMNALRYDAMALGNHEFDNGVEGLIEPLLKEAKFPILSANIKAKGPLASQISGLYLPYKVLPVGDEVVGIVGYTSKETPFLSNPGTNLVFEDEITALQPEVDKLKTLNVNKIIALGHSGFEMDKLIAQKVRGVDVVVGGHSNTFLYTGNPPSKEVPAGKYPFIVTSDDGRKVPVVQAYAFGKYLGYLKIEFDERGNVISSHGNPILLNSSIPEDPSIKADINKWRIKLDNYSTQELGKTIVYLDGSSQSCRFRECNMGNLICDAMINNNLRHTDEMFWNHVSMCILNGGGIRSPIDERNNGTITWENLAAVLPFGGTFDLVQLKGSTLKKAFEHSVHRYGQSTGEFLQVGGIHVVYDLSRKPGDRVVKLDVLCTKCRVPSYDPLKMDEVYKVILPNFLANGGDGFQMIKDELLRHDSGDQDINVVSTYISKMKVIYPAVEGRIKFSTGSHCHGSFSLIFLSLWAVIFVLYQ

Structure (SMILES): Nc1ncnc2c1ncn2[C@@H]1O[C@H](COP(=O)(O)CP(=O)(O)O)[C@@H](O)[C@H]1O [PHOSPHOMETHYLPHOSPHONIC ACID ADENOSYL ESTER]
- pIC50 (5'-nucleotidase [1]): 5.96
- pIC50 (5'-nucleotidase [2]): 5.60
- pIC50 (5'-nucleotidase [3]): 7.22
- pIC50 (5'-nucleotidase [4]): 7.30
- pKi (5'-nucleotidase [5]): 6.06
- pKi (5'-nucleotidase [6]): 6.29

Structure (SMILES): Cc1cc(-c2ccc(/N=N/c3ccc4c(S(=O)(=O)O)cc(S(=O)(=O)O)c(N)c4c3O)c(C)c2)ccc1/N=N/c1ccc2c(S(=O)(=O)O)cc(S(=O)(=O)O)c(N)c2c1O
- inhibition (Rattus norvegicus): 97.2%

Structure (SMILES): N#Cc1nnc(-c2c[nH]c(=O)[nH]c2=O)cc1[C@H]1C[C@@H]1C(F)F
- pIC50 (5'-nucleotidase [7]): > 7.21

Structure (SMILES): O=c1[nH]cc(-c2cc([C@H]3C[C@@H]3C(F)F)c(Cl)nn2)c(=O)[nH]1
- pIC50 (5'-nucleotidase [7]): > 7.21

Structure (SMILES): COc1nnc(-c2c[nH]c(=O)[nH]c2=O)cc1C1CCC(F)(F)C1 (stereo not given)
- pIC50 (5'-nucleotidase [7]): > 7.21
- pIC50 (5'-nucleotidase [7]; hek293f): > 7.21

Structure (SMILES): COc1nnc(-c2c[nH]c(=O)[nH]c2=O)cc1C1CC(F)(F)C1
- pIC50 (5'-nucleotidase [7]): > 7.21

Structure (SMILES): COc1nnc(-c2c[nH]c(=O)[nH]c2=O)cc1C1CC1
- pIC50 (5'-nucleotidase [7]): > 7.21

Structure (SMILES): Cc1nnc(-c2c[nH]c(=O)[nH]c2=O)cc1[C@H]1C[C@@H]1C(F)F
- pEC50 (5'-nucleotidase [8]): 7.29
- pIC50 (5'-nucleotidase [7]): > 7.21

Structure (SMILES): O=c1[nH]cc(-c2cc(C3CC3)c(Cl)nn2)c(=O)[nH]1
- pIC50 (5'-nucleotidase [7]): > 7.21

Structure (SMILES): CCCCSc1nc2c(N)ncnc2n1[C@@H]1O[C@H](COP(=O)(O)OP(=O)(O)O)[C@@H](O)[C@H]1O
- pKi [9]: 6.05
- pIC50 [10]: 4.55

Structure (SMILES): CC1(C)CC(c2cc(-c3c[nH]c(=O)[nH]c3=O)nnc2Cl)C1
- pIC50 (5'-nucleotidase [7]): > 7.21

Structure (SMILES): Nc1c(S(=O)(=O)O)cc(Nc2ccc(Nc3nc(Cl)nc(Nc4ccc(S(=O)(=O)O)c(S(=O)(=O)O)c4)n3)c(S(=O)(=O)O)c2)c2c1C(=O)c1ccccc1C2=O
- pKi [11]: 4.70
- pKi [12]: 4.62
- pKi [13]: 5.96

Structure (SMILES): O=c1[nH]cc(-c2cc(C3CC(F)(F)C3)c(Cl)nn2)c(=O)[nH]1
- pIC50 (5'-nucleotidase [7]): > 7.21

Structure (SMILES): CCCCSc1nc2c(N)ncnc2n1[C@@H]1O[C@H](COP(=O)(O)O)[C@@H](O)[C@H]1O
- pIC50 [10]: 4.46

Structure (SMILES): O=c1[nH]cc(-c2cc([C@H]3C[C@@H]3C(F)F)cnn2)c(=O)[nH]1
- pIC50 (5'-nucleotidase [7]): > 7.21

Structure (SMILES): O=S1(=O)NC(Nc2cccc3[nH]ncc23)=Nc2c1cc(Cl)c(F)c2O
- pIC50 [14]: 7.82

Structure (SMILES): N#Cc1nnc(-c2c[nH]c(=O)[nH]c2=O)cc1C1CCCC1
- pIC50 (5'-nucleotidase [7]): > 7.21

Structure (SMILES): COc1nnc(-c2c[nH]c(=O)[nH]c2=O)cc1C1CCCCC1
- pIC50 (5'-nucleotidase [7]): > 7.21

Structure (SMILES): N#Cc1nnc(-c2c[nH]c(=O)[nH]c2=O)cc1C1CC1
- pIC50 (5'-nucleotidase [7]): > 7.21

Structure (SMILES): C[C@@H](Nc1nc(Cl)nc2c1ncn2[C@@H]1O[C@H](CS(=O)(=O)CP(=O)(O)O)[C@@H](O)[C@H]1O)c1ccccc1
- pIC50 (5'-nucleotidase [4]): > 8.00
